We go through eleven compounds from patent US7109206B2.

Series [1] has as its system patients with severe coronary artery disease. Briefly: Angina symptoms and clinical outcome of treated patients (case reports). Format: in vivo, human. The note with it: for time to clearing of congestive heart failure: furosemide 40 mg twice a day, digoxin 0.25 mg, warfarin 5 mg once a day; for angina frequency: buspirone 20 mg t.i.d.
From the text: The patient population in this study consisted of 11 individuals with severe coronary artery disease who were refractory to CABG or PCTA or who declined recommended CABG or PCTA, and one individual with severe carotid artery stenosis. The study group consisted of 10 men and 2 women, with a median age at entry into the program of 65 years (mean, 65.8 years), and a mean time in program of 4.1 years (range, 9 months to 12 years).
In this study, ten patients experienced angina at the time of presentation. The median time to remission of anginal symptoms was calculated on the basis of the nine patients who presented with angina and for whom records of anginal frequency were accessible.
The test system is the same in series [2]. Briefly: Tolerability / adverse effects in treated patients.
A short description of series [3]: Serum lipids and laboratory values of treated patients (case reports).

As to `O=c1n(CCCN2CCN(c3cccc(Cl)c3)CC2)nc2ccccn12` [trazodone], the “relief of fatigue and difficulty sleeping” value in series [1] (Patient three, trazodone 50 mg and imipramine 25 mg at bedtime, given together) is listed as “fair to moderate relief”.

As for `NCCCC[C@H](N[C@@H](CCc1ccccc1)C(=O)O)C(=O)N1CCC[C@H]1C(=O)O` [lisinopril], the angina result in series [1] (Patient three, lisinopril 5 mg/day substituted for diltiazem 60 mg four times a day) is given as “Angina recurred with mild to moderate exercise”.

For the compound `C[C@H]1O[C@@H](O[C@H]2[C@@H](O)C[C@H](O[C@H]3[C@@H](O)C[C@H](O[C@H]4CC[C@@]5(C)[C@H](CC[C@@H]6[C@@H]5C[C@@H](O)[C@]5(C)[C@@H](C7=CC(=O)OC7)CC[C@]65O)C4)O[C@@H]3C)O[C@@H]2C)C[C@H](O)[C@@H]1O` [digoxin], in series [1] (Patient three, given together), the “time to clearing of congestive heart failure” value was 24 h.

As to `COc1ccc([C@@H]2Sc3ccccc3N(CCN(C)C)C(=O)[C@@H]2OC(C)=O)cc1` [diltiazem], the angina result in series [1] (Patient three, diltiazem restarted after one month of lisinopril) is listed as “prompt remission of angina”.

On to `O=[N+]([O-])OCC(CO[N+](=O)[O-])O[N+](=O)[O-]` [nitroglycerin], for which the angina after discontinuation entry in series [1] (Patient five, discontinuation of the nitroglycerin) was “five episodes of angina”. Besides, the nonexertional angina entry in series [1] (Patient five, transdermal nitroglycerin) is on record as “refractory”. Further, in series [1] (Patient two, 15 months after induction of therapy), the left neck pain result is listed as “relieved”.

On to `O=C(O)c1cccnc1` [niacin], for which the adverse effect entry in series [2] (Patient three, niacin 3.0 g/day, weeks 5-7, dose decreased to 1.5 g/day) was “itching and flushing”. For the same compound, the tolerability entry in series [2] (Patient two, niacin 3 g per day, dose decreased to 1 g per day) is given as “intolerance appeared”.

In the case of `CCC(C)(C)C(=O)O[C@H]1C[C@@H](C)C=C2C=C[C@H](C)[C@H](CC[C@@H]3C[C@@H](O)CC(=O)O3)[C@H]21` [simvastatin], in series [3] (Patient four, simvastatin 40 mg per day substituted for pravastatin in the regimen, range 81-146), the “serum total cholesterol, mean of five determinations” value was 118 mg/dL. In addition, in series [3] (Patient four, simvastatin 40 mg per day, range 37-71), the “HDL cholesterol, mean of five determinations” value stood at 55 mg/dL. Further, in series [3] (Patient four, year of 1995), the HDL came out at 82 mg/dL, the LDL was 53 mg/dL, the total cholesterol stood at 121 mg/dL and the triglycerides was found to be 44 mg/dL.

As for `O=C1CC2(CCCC2)CC(=O)N1CCCCN1CCN(c2ncccn2)CC1` [buspirone], the angina entry in series [1] (Patient five, buspirone 15 mg t.i.d. added, induction phase) is given as “their angina remitted”. Moreover, the angina frequency result in series [1] (Patient five, no use of nitroglycerin) is “one episode of mild angina in two weeks”; in series [1] (Patient five, through June of the next year), “no episodes of angina”. Also, the angina symptoms entry in series [1] (Patient five, buspirone increased to 20 mg t.i.d., isosorbide dinitrate discontinued) was “Marked palliation of the symptoms”. Further, the “chest tightness with anxiety or distress” value in series [1] (Patient one, buspirone 10 mg b.i.d. added to medications) is “no further episodes of chest tightness were reported”. Besides, in series [1] (Patient, buspirone 30 mg per day, after one month 15 mg t.i.d.), the “frequency of angina symptoms” value is “remained approximately constant”. Further, the “severity of angina symptoms” value in series [1] (Patient, buspirone 30 mg per day, after one month 15 mg t.i.d., added to medications) was “declined markedly, from pain to mild tightness”. Also, in series [1] (Patient, buspirone, six months after initiation of therapy), the anginal symptoms entry was “resolved completely”. Besides, the “relief from refractory unstable angina” value in series [1] (summary of results) is “effective in providing relief from refractory unstable angina”.

Consider `CC[C@H](C)C(=O)O[C@H]1C[C@@H](C)C=C2C=C[C@H](C)[C@H](CC[C@@H]3C[C@@H](O)CC(=O)O3)[C@H]21` [lovastatin], for which the adverse event entry in series [2] (Patient four, on lovastatin 30 mg per day regimen, pravastatin substituted) is “mild conjunctivitis of unknown etiology”. The compound further had a total cholesterol in series [3] (Patient two, fifth year, lovastatin discontinued, range 155 to 194) of 176 mg/dL.

For the compound colestipol, the angina entry in series [1] (Patient five, colestipol 12 g per day) is listed as “severity of their angina declined”. Moreover, the “serum total cholesterol, mean of three determinations” value in series [3] (Patient five, colestipol 12 g per day, declined from 241) came to 217 mg/dL.

With `CC(=O)CC(c1ccccc1)c1c(O)c2ccccc2oc1=O` (centres unmarked) [warfarin], the “time to clearing of congestive heart failure” value in series [1] (Patient three, given together) was 24 h.
